Data published in ChEMBL document CHEMBL1201861, “Genomics of Drug Sensitity in Cancer screening data, Wellcome Trust Sanger Institute”.
Structures can show the parent of a compound that is named as a salt.

What was measured:
Experiment in all cases: cells
Type in all cases: functional, cell-based, Homo sapiens
SR = settings: Homo sapiens, SR
Description: SANGER: Inhibition of human SR cell growth in a cell viability assay.

NCI-H2081 = settings: Homo sapiens, NCI-H2081
Description: SANGER: Inhibition of human NCI-H2081 cell growth in a cell viability assay.

BOKU = settings: Homo sapiens, BOKU
Description: SANGER: Inhibition of human BOKU cell growth in a cell viability assay.

TUR = settings: Homo sapiens, TUR
Description: SANGER: Inhibition of human TUR cell growth in a cell viability assay.

CAL-148 = settings: Homo sapiens, CAL-148
Description: SANGER: Inhibition of human CAL-148 cell growth in a cell viability assay.

SK-MM-2 = settings: Homo sapiens, SK-MM-2
Description: SANGER: Inhibition of human SK-MM-2 cell growth in a cell viability assay.

YT = settings: Homo sapiens, YT
Description: SANGER: Inhibition of human YT cell growth in a cell viability assay.

J82 = settings: Homo sapiens, J82
Description: SANGER: Inhibition of human J82 cell growth in a cell viability assay.

SW837 = settings: Homo sapiens, SW837
Description: SANGER: Inhibition of human SW837 cell growth in a cell viability assay.

HSC-3 = settings: Homo sapiens, HSC-3
Description: SANGER: Inhibition of human HSC-3 cell growth in a cell viability assay.

DBTRG-05MG = settings: Homo sapiens, DBTRG-05MG
Description: SANGER: Inhibition of human DBTRG-05MG cell growth in a cell viability assay.

MC-IXC = settings: Homo sapiens, MC-IXC
Description: SANGER: Inhibition of human MC-IXC cell growth in a cell viability assay.

CHL-1 = settings: Homo sapiens, CHL-1
Description: SANGER: Inhibition of human CHL-1 cell growth in a cell viability assay.

SNU-387 = settings: Homo sapiens, SNU-387
Description: SANGER: Inhibition of human SNU-387 cell growth in a cell viability assay.

HT-1080 = settings: Homo sapiens, HT-1080
Description: SANGER: Inhibition of human HT-1080 cell growth in a cell viability assay.

UACC-893 = settings: Homo sapiens, UACC-893
Description: SANGER: Inhibition of human UACC-893 cell growth in a cell viability assay.

PANC-08-13 = settings: Homo sapiens, PANC-08-13
Description: SANGER: Inhibition of human PANC-08-13 cell growth in a cell viability assay.

HT-3 = settings: Homo sapiens, HT-3
Description: SANGER: Inhibition of human HT-3 cell growth in a cell viability assay.

FaDu = settings: Homo sapiens, FaDu
Description: SANGER: Inhibition of human FADU cell growth in a cell viability assay.

HCC38 = settings: Homo sapiens, HCC38
Description: SANGER: Inhibition of human HCC38 cell growth in a cell viability assay.

NCI-H2052 = settings: Homo sapiens, NCI-H2052
Description: SANGER: Inhibition of human NCI-H2052 cell growth in a cell viability assay.

C-33-A = settings: Homo sapiens, C-33-A
Description: SANGER: Inhibition of human C-33-A cell growth in a cell viability assay.

VMRC-RCZ = settings: Homo sapiens, VMRC-RCZ
Description: SANGER: Inhibition of human VMRC-RCZ cell growth in a cell viability assay.

BCPAP = settings: Homo sapiens, BCPAP
Description: SANGER: Inhibition of human BCPAP cell growth in a cell viability assay.

RT-112 = settings: Homo sapiens, RT-112
Description: SANGER: Inhibition of human RT-112 cell growth in a cell viability assay.

A204 = settings: Homo sapiens, A204
Description: SANGER: Inhibition of human A204 cell growth in a cell viability assay.

MHH-ES-1 = settings: Homo sapiens, MHH-ES-1
Description: SANGER: Inhibition of human MHH-ES-1 cell growth in a cell viability assay.

ABC-1 = settings: Homo sapiens, ABC-1
Description: SANGER: Inhibition of human ABC-1 cell growth in a cell viability assay.

CP50-MEL-B = settings: Homo sapiens, CP50-MEL-B
Description: SANGER: Inhibition of human CP50-MEL-B cell growth in a cell viability assay.

DK-MG = settings: Homo sapiens, DK-MG
Description: SANGER: Inhibition of human DK-MG cell growth in a cell viability assay.

NCI-H1563 = settings: Homo sapiens, NCI-H1563
Description: SANGER: Inhibition of human NCI-H1563 cell growth in a cell viability assay.

MKN-1 = settings: Homo sapiens, MKN-1
Description: SANGER: Inhibition of human MKN1 cell growth in a cell viability assay.

786-0 = settings: Homo sapiens
Description: SANGER: Inhibition of human 786-0 cell growth in a cell viability assay.

COLO-679 = settings: Homo sapiens, COLO-679
Description: SANGER: Inhibition of human COLO-679 cell growth in a cell viability assay.

SW1783 = settings: Homo sapiens, SW1783
Description: SANGER: Inhibition of human SW1783 cell growth in a cell viability assay.

COLO-680N = settings: Homo sapiens, COLO-680N
Description: SANGER: Inhibition of human COLO-680N cell growth in a cell viability assay.

HOS = settings: Homo sapiens, HOS
Description: SANGER: Inhibition of human HOS cell growth in a cell viability assay.

NCI-H292 = settings: Homo sapiens, NCI-H292
Description: SANGER: Inhibition of human NCI-H292 cell growth in a cell viability assay.

BT-20 = settings: Homo sapiens, BT-20
Description: SANGER: Inhibition of human BT-20 cell growth in a cell viability assay.

AN3-CA = settings: Homo sapiens, AN3-CA
Description: SANGER: Inhibition of human AN3-CA cell growth in a cell viability assay.

A2058 = settings: Homo sapiens, A2058
Description: SANGER: Inhibition of human A2058 cell growth in a cell viability assay.

HTC-C3 = settings: Homo sapiens, HTC-C3
Description: SANGER: Inhibition of human HTC-C3 cell growth in a cell viability assay.

DOK = settings: Homo sapiens, DOK
Description: SANGER: Inhibition of human DOK cell growth in a cell viability assay.

BHY = settings: Homo sapiens, BHY
Description: SANGER: Inhibition of human BHY cell growth in a cell viability assay.

A-431 = settings: Homo sapiens, A-431
Description: SANGER: Inhibition of human A431 cell growth in a cell viability assay.

## COc1cc2ncn(-c3cc(OCc4ccccc4C(F)(F)F)c(C(N)=O)s3)c2cc1OC [GW843682X]
SR
  IC50: 14.5 nM
NCI-H2081
  IC50: > 256 nM
BOKU
  IC50: 135 nM
TUR
  IC50: > 256 nM
CAL-148
  IC50: 90.7 nM
SK-MM-2
  IC50: > 256 nM
YT
  IC50: > 256 nM

## CCC/C=C/C=C/C(=O)O[C@H]1/C(=C/C(=O)OC)C[C@H]2C[C@H]([C@@H](C)O)OC(=O)C[C@H](O)C[C@@H]3C[C@H](OC(C)=O)C(C)(C)[C@](O)(C[C@@H]4C/C(=C/C(=O)OC)C[C@H](/C=C/C(C)(C)[C@]1(O)O2)O4)O3 [BRYOSTATIN 1]
J82
  IC50: > 8 nM
SW837
  IC50: > 8 nM
HSC-3
  IC50: > 8 nM
DBTRG-05MG
  IC50: > 8 nM
MC-IXC
  IC50: > 8 nM
CHL-1
  IC50: > 8 nM
SNU-387
  IC50: > 8 nM
HT-1080
  IC50: > 8 nM
UACC-893
  IC50: > 8 nM
PANC-08-13
  IC50: > 8 nM
HT-3
  IC50: > 8 nM
FaDu
  IC50: > 8 nM
HCC38
  IC50: > 8 nM
NCI-H2052
  IC50: > 8 nM
SR
  IC50: > 8 nM
C-33-A
  IC50: > 8 nM
VMRC-RCZ
  IC50: > 8 nM
BCPAP
  IC50: > 8 nM
RT-112
  IC50: > 8 nM
A204
  IC50: > 8 nM
NCI-H2081
  IC50: > 8 nM
BOKU
  IC50: > 8 nM
MHH-ES-1
  IC50: > 8 nM
TUR
  IC50: > 8 nM
ABC-1
  IC50: > 8 nM
CP50-MEL-B
  IC50: > 8 nM
DK-MG
  IC50: > 8 nM
NCI-H1563
  IC50: > 8 nM
MKN-1
  IC50: > 8 nM
CAL-148
  IC50: > 8 nM
786-0
  IC50: > 8 nM
COLO-679
  IC50: > 8 nM
SW1783
  IC50: > 8 nM
SK-MM-2
  IC50: > 8 nM
COLO-680N
  IC50: > 8 nM
HOS
  IC50: > 8 nM
NCI-H292
  IC50: > 8 nM
BT-20
  IC50: > 8 nM
YT
  IC50: > 8 nM
AN3-CA
  IC50: > 8 nM
A2058
  IC50: > 8 nM
HTC-C3
  IC50: > 8 nM
DOK
  IC50: > 8 nM
BHY
  IC50: > 8 nM
A-431
  IC50: > 8 nM

## COC1=CC(c2cc3ccccc3[nH]2)=N/C1=C\c1[nH]c(C)cc1C [OBATOCLAX MESYLATE]
J82
  IC50: 109 nM
SW837
  IC50: 467 nM
HSC-3
  IC50: < 62.5 nM
DBTRG-05MG
  IC50: 2060 nM
MC-IXC
  IC50: 345 nM
CHL-1
  IC50: 48.6 nM
SNU-387
  IC50: 903 nM
HT-1080
  IC50: 511 nM
UACC-893
  IC50: 2860 nM
PANC-08-13
  IC50: 1340 nM
HT-3
  IC50: 1310 nM
FaDu
  IC50: 426 nM
HCC38
  IC50: 2380 nM
NCI-H2052
  IC50: 567 nM
SR
  IC50: < 62.5 nM
C-33-A
  IC50: < 62.5 nM
VMRC-RCZ
  IC50: 403 nM
BCPAP
  IC50: 58.9 nM
RT-112
  IC50: 666 nM
A204
  IC50: 1600 nM
NCI-H2081
  IC50: 781 nM
BOKU
  IC50: 1280 nM
MHH-ES-1
  IC50: 186 nM
TUR
  IC50: 1160 nM
ABC-1
  IC50: 505 nM
CP50-MEL-B
  IC50: 87.9 nM
DK-MG
  IC50: 710 nM
NCI-H1563
  IC50: > 16000 nM
MKN-1
  IC50: 304 nM
CAL-148
  IC50: 1040 nM
786-0
  IC50: < 62.5 nM
COLO-679
  IC50: < 62.5 nM
SW1783
  IC50: 193 nM
SK-MM-2
  IC50: 577 nM
COLO-680N
  IC50: 50.5 nM
HOS
  IC50: 34.7 nM
NCI-H292
  IC50: 176 nM
BT-20
  IC50: 4490 nM
YT
  IC50: 73.4 nM
AN3-CA
  IC50: 156 nM
A2058
  IC50: 107 nM
HTC-C3
  IC50: 104 nM
DOK
  IC50: 848 nM
BHY
  IC50: < 62.5 nM
A-431
  IC50: 88 nM

## Cc1ccc(-c2c(C(=O)CCl)n(CCCO)c3ncnc(N)c23)cc1
SR
  IC50: > 4000 nM
NCI-H2081
  IC50: > 4000 nM
BOKU
  IC50: > 4000 nM
TUR
  IC50: > 4000 nM
CAL-148
  IC50: > 4000 nM
SK-MM-2
  IC50: > 4000 nM
YT
  IC50: > 4000 nM

## C#Cc1cccc(Nc2ncnc3cc(OCCOC)c(OCCOC)cc23)c1 [ERLOTINIB]
SR
  IC50: > 2000 nM
NCI-H2081
  IC50: > 2000 nM
TUR
  IC50: > 2000 nM
SK-MM-2
  IC50: > 2000 nM
YT
  IC50: > 2000 nM

## COc1cc2ncn(-c3cc(OCc4ccccc4S(C)(=O)=O)c(C#N)s3)c2cc1OC [GSK-319347A]
SR
  IC50: > 5000 nM
NCI-H2081
  IC50: > 5000 nM
TUR
  IC50: > 5000 nM
CAL-148
  IC50: > 5000 nM
SK-MM-2
  IC50: > 5000 nM
YT
  IC50: > 5000 nM

## COc1cc(-c2nn([C@H]3CC[C@H](N4CCN(C(C)=O)CC4)CC3)c3ncnc(N)c23)ccc1NC(=O)c1cc2ccccc2n1C
SR
  IC50: > 5120 nM
NCI-H2081
  IC50: > 5120 nM
BOKU
  IC50: > 5120 nM
TUR
  IC50: > 5120 nM
CAL-148
  IC50: > 5120 nM
SK-MM-2
  IC50: > 5120 nM
YT
  IC50: > 5120 nM

## OCCCNc1cc(-c2ccnc(Nc3cccc(Cl)c3)n2)ccn1
SR
  IC50: 25.5 nM
NCI-H2081
  IC50: > 256 nM
BOKU
  IC50: 54.3 nM
TUR
  IC50: > 256 nM
CAL-148
  IC50: 199 nM
SK-MM-2
  IC50: 124 nM
YT
  IC50: > 256 nM

## COc1cc(N2CCN(C)CC2)ccc1Nc1ncc2c(n1)N(C)c1ccccc1C(=O)N2C
SR
  IC50: 6480 nM
NCI-H2081
  IC50: > 8000 nM
TUR
  IC50: > 8000 nM
CAL-148
  IC50: > 8000 nM
SK-MM-2
  IC50: 2590 nM
YT
  IC50: 3480 nM

## Nc1ccn([C@@H]2O[C@H](CO)[C@@H](O)C2(F)F)c(=O)n1 [GEMCITABINE]
J82
  IC50: 7.41 nM
SW837
  IC50: 27.6 nM
HSC-3
  IC50: 1.91 nM
DBTRG-05MG
  IC50: 122 nM
MC-IXC
  IC50: 2.26 nM
CHL-1
  IC50: < 4 nM
SNU-387
  IC50: 827 nM
HT-1080
  IC50: 5.83 nM
UACC-893
  IC50: > 1020 nM
PANC-08-13
  IC50: > 1020 nM
HT-3
  IC50: 201 nM
FaDu
  IC50: 105 nM
HCC38
  IC50: 21.9 nM
NCI-H2052
  IC50: 145 nM
SR
  IC50: 2.12 nM
C-33-A
  IC50: < 4 nM
VMRC-RCZ
  IC50: 1.54 nM
BCPAP
  IC50: 1.45 nM
RT-112
  IC50: < 4 nM
A204
  IC50: 11.2 nM
NCI-H2081
  IC50: 311 nM
BOKU
  IC50: 254 nM
MHH-ES-1
  IC50: < 4 nM
TUR
  IC50: 32 nM
ABC-1
  IC50: 22.6 nM
CP50-MEL-B
  IC50: > 1020 nM
DK-MG
  IC50: > 1020 nM
NCI-H1563
  IC50: > 1020 nM
MKN-1
  IC50: 78.4 nM
CAL-148
  IC50: 17.2 nM
786-0
  IC50: < 4 nM
COLO-679
  IC50: 10.1 nM
SW1783
  IC50: < 4 nM
SK-MM-2
  IC50: 479 nM
COLO-680N
  IC50: 75.5 nM
HOS
  IC50: < 4 nM
NCI-H292
  IC50: 20.8 nM
BT-20
  IC50: 182 nM
YT
  IC50: > 1020 nM
AN3-CA
  IC50: 203 nM
A2058
  IC50: 32.8 nM
HTC-C3
  IC50: 996 nM
DOK
  IC50: > 1020 nM
BHY
  IC50: 1.14 nM
A-431
  IC50: < 4 nM

## CC[C@H](CO)Nc1nc(NCc2ccccc2)c2ncn(C(C)C)c2n1 [SELICICLIB]
SR
  IC50: > 16000 nM
NCI-H2081
  IC50: > 16000 nM
TUR
  IC50: > 16000 nM
CAL-148
  IC50: > 16000 nM
SK-MM-2
  IC50: > 16000 nM
YT
  IC50: > 16000 nM

## CC(=O)O[C@H]1C(=O)[C@@]2(C)[C@H]([C@H](OC(=O)c3ccccc3)[C@]3(O)C[C@H](OC(=O)[C@H](O)[C@@H](NC(=O)c4ccccc4)c4ccccc4)C(C)=C1C3(C)C)[C@]1(OC(C)=O)CO[C@@H]1C[C@@H]2O [PACLITAXEL]
SR
  IC50: 10.3 nM
NCI-H2081
  IC50: > 102 nM
BOKU
  IC50: > 102 nM
TUR
  IC50: > 102 nM
CAL-148
  IC50: 54.4 nM
SK-MM-2
  IC50: > 102 nM
YT
  IC50: > 102 nM

## N[C@@H](CSC(c1ccccc1)(c1ccccc1)c1ccccc1)C(=O)O [S-TRITYL-L-CYSTEINE]
SR
  IC50: 718 nM
NCI-H2081
  IC50: > 5120 nM
BOKU
  IC50: > 5120 nM
TUR
  IC50: > 5120 nM
CAL-148
  IC50: 4350 nM
SK-MM-2
  IC50: > 5120 nM
YT
  IC50: > 5120 nM

## CCN(CC)CCNC(=O)c1c(C)[nH]c(/C=C2\C(=O)Nc3ccc(F)cc32)c1C [SUNITINIB]
SR
  IC50: 1550 nM
NCI-H2081
  IC50: > 8000 nM
BOKU
  IC50: > 8000 nM
TUR
  IC50: > 8000 nM
CAL-148
  IC50: > 8000 nM
SK-MM-2
  IC50: 5480 nM
YT
  IC50: > 8000 nM
